These results are taken from patent publication US8193252B1, “Mesoprogestins (progesterone receptor modulators) for the treatment and prevention of benign hormone dependent gynecological disorders” (Bayer Pharma AG, priority 1999, dated 2012).

For test [1], the target named is T1, GR (Homo sapiens, UniProt P04150).
T1 sequence (P04150 1-777): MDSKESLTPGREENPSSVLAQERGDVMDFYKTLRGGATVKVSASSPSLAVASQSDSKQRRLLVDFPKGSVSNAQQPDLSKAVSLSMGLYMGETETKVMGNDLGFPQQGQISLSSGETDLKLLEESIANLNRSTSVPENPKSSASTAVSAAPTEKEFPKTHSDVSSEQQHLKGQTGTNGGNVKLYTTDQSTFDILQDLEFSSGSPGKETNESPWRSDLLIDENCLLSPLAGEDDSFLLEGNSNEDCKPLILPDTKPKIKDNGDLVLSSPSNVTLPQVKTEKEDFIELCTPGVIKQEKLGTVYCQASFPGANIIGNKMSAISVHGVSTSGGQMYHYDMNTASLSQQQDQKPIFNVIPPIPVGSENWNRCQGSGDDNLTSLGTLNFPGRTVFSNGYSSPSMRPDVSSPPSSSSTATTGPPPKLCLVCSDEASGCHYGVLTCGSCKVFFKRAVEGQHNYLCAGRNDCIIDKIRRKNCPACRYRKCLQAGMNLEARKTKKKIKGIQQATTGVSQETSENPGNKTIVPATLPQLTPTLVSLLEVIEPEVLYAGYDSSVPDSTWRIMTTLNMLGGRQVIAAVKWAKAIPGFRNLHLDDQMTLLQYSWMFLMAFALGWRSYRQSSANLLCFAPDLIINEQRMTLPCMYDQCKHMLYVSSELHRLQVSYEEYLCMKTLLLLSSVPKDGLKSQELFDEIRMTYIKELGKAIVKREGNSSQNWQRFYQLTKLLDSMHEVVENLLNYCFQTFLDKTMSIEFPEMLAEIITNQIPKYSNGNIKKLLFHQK
The experiment in a line: Relative binding activity (RBA) at GR, dexamethasone = 100%. Particulars: by Kaufmann.

Test [2] deals with pregnant rats. The experiment in a line: Abortifacient activity in pregnant rats. Particulars: s.c.; treatment days 5-7 of pregnancy, autopsy day 9; * SAS, probit procedure. The format is in vivo, rat. An excerpt:
The guinea pig is considered as relevant model of human gestation and parturition (Elger W, Fähnrich M, Beier S, Quing S S, Chwalisz K (1987). Endometrial and myometrial effects of progesterone antagonists in pregnant guinea pigs. Am J Obstet Gynecol 157: 1065-1074; Elger W, Neef G, Beier S, Fähnrich M, Gründel M, Heermann J, Malmendier A, Laurent D, Puri C P, Singh M M, Hasan S H, Becker H (1992). Evaluation of antifertility activities of antigestagens in animal model. In: Puri C P and Van Look P F A (eds), Current Concepts in Fertility Regulation and Reproduction. Wiley Eastern Limited, New Delhi, pp. 303-328; Elger W, Faehnrich M, Beier S, Qing S S, Chwalisz K (1986). Mechanism of action of progesterone antagonists in pregnant guinea pigs. Contraception 6: 47-62; Elger W, Chwalisz K, Faehnrich M, Hasan S H, Laurent D, Beier S, Ottow E, Neef G, Garfield R E (1990). Studies on labor-conditioning and labor-inducing effects of antiprogesterones in animal model. In: Garfield R E (eds), Norwell, pp. 153-175.) The mechanism of abortion of antiprogestins in this species is the initiation of labor and finally the expulsion of the conceptus. Abortifacient effects in the rat during very early pregnancy reflect inhibitory effects on nidation rather than initiation of uterine contractions. Studies in the rat model lead to “overestimation” of the potential of antiprogestins to terminate pregnancy in humans. Conversely, in the guinea pig model, irrespective of the antiprogestin doses, there were high rates of ongoing pregnancies similar to the situation in humans (Elger et al., Current Concepts in Fertility Regulation and Reproduction cited above). Furthermore, in both humans and guinea pigs, there is a strong synergism between antiprogestins and prostaglandins with respect the induction of labor (see the articles cited above and Elger W, Beier S (1983). Prostaglandine and Antigestagene für den Schwangerschaftsabbruch (Prostaglandins and antigestagens for pregnancy termination). German Patent DE 3337450 12; Van Look P, Bygdeman M (1989). Antiprogestational steroids: a new dimension in human fertility regulation. Oxford reviews of reproductive medicine 11: 2-60).

Test [3] concerns the target T2, PR (progesterone receptor) (Homo sapiens, UniProt P06401).
T2 sequence (P06401 1-933): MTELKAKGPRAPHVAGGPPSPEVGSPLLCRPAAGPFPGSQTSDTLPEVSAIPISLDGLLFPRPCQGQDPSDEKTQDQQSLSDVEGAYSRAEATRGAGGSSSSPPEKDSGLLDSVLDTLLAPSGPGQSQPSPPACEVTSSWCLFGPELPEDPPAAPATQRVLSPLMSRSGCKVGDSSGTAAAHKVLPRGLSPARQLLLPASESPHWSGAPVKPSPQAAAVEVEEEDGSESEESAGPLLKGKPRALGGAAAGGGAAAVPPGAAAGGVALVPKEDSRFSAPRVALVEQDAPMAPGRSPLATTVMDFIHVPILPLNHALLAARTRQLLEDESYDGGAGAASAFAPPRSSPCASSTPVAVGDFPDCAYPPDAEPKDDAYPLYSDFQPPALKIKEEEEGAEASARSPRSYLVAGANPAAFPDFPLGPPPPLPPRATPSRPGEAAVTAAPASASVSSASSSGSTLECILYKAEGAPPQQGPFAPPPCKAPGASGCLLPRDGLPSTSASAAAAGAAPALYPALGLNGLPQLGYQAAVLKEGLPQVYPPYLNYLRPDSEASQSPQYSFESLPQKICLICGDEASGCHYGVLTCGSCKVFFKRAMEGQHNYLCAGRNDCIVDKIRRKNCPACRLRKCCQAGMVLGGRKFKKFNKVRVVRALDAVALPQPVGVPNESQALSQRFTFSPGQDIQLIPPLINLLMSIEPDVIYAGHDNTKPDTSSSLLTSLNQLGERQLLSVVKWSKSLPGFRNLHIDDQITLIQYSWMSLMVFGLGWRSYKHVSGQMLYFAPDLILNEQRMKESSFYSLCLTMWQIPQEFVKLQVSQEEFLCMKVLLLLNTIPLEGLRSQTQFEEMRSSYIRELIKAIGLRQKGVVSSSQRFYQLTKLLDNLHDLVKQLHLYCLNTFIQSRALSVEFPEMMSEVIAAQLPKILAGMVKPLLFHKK
The experiment in a line: Relative binding activity (RBA) at PR, progesterone = 100%. Particulars: by Kaufmann.

For test [4] the following is noted: as described in DE 43 32 283 / DE 43 32 284; cited from earlier work.
The subject of test [5] is endometriosis. The experiment in a line: Treatment of endometriosis in women. The format is in vivo, human. Particulars: women with endometriosis, 3-6 months, 5-50 mg.
Test [6] concerns cyclic guinea pigs. Particulars: cited from earlier work.

Turning to `CCSC(=O)O/N=C/c1ccc([C@H]2C[C@@]3(C)[C@@H](CC[C@]3(COC)OC)[C@@H]3CCC4=CC(=O)CCC4=C32)cc1` [J1042, 4-[17β-Methoxy-17α-(methoxymethyl)-3-oxoestra-4,9-dien-11β-yl]benzaldehyd-(1E)-[O-(ethylthio)carbonyl]oxim], in test [1], the “RBA (%) GR” value is on record as 42%. Further, the “abortifacient activity ED50, rat” value in test [2] is on record as more than 10 mg/animal/day. Further, in test [3], the “RBA (%) PR” value was 164%.
`COC[C@]1(OC)CC[C@H]2[C@@H]3CCC4=CC(=O)CCC4=C3[C@@H](c3ccc(/C=N/O)cc3)C[C@@]21C` [J867, 4-[17β-Methoxy-17α-(methoxymethyl)-3-oxoestra-4,9-dien-11β-yl]benzaldehyd-(1E)-oxim]: the “RBA (%) GR” value in test [1] is 78%. Further, in test [4], the antiprogestagenic activity result is “strong”. Moreover, in test [2], the “abortifacient activity ED50, rat” value is 0.65* mg/animal/day. Further, the “RBA (%) PR” value in test [3] came to 302%. In addition, the “pelvic pain during treatment” value in test [5] is reported as “reduction of pelvic pain was observed”. Further, the uterine weights result in test [6] is given as “reduced uterine weights”.
Consider `CCNC(=O)O/N=C/c1ccc([C@H]2C[C@@]3(C)[C@@H](CC[C@]3(COC)OC)[C@@H]3CCC4=CC(=O)CCC4=C32)cc1` [J956, 4-[17β-Methoxy-17α-(methoxymethyl)-3-oxoestra-4,9-dien-11β-yl]benzaldehyd-(1E)-[O-(ethylamino)carbonyl]oxim], for which the “RBA (%) GR” value in test [1] was determined as 154%. The “abortifacient activity ED50, rat” value in test [2] was 0.64* mg/animal/day. The “RBA (%) PR” value in test [3] stood at 345%.
